# According to US20050049204A1, “Compounds for the treatment of flaviviridae infections” (priority 2003, published 2005):
# Like-named read-outs stand apart in the source and are kept apart here.
# Legend:
# [1] = tested on: rRNA in HCV-replicon RNA-containing Huh7 cells; experiment: rRNA levels in HCV replicon cells (cellular toxicity), Q-RT-PCR after 96 h
# Procedure: HCV replicon cells were seeded in the presence of test compound at approximately 10^3 cells per well in a 96-well plate and incubated for 96 hours. rRNA and HCV RNA were quantified by Q-RT-PCR. ●: HCV RNA levels; ◯: rRNA levels; ▾: HCV RNA levels after correction (=subtraction of rRNA) for cellular toxicity. […] The plots shown are the mean results of at least three independent experiments. EC90 values as given in Table 1 are read from the HCV curves corrected for cellular toxicity.
# HCV-replicon RNA-containing Huh7 cells (Clone A cells; Apath, LLC, St. Louis, Mo.) were kept in exponential growth in DMEM media (high glucose, no pyruvate) containing 10% fetal bovine serum, 1× non-essential amino acids (100 units/ml), penicillin-streptomycin (100 μg/ml), glutamine (0.292 mg/ml), and G418 (1,000 μg/ml). Antiviral assays were performed in the same medium without G418. […] Cells were seeded in a 6-well plate at 10^5 cells per well. Candidate antiviral compounds were tested as described (Stuyver, et al. “A ribonucleoside analogue that blocks the replication of bovine viral diarrhea and hepatitis C viruses in culture” Antimicrob. Agents Chemother., January 2003, 47 (1), 244-254). Incubation times differed according to the type of experiment. At the end of the incubation step, cells were counted using the trypan-blue exclusion method, and total cellular RNA was isolated (Rneasy 96 kit, Qiagen, CA). Replicon RNA and an internal control (TaqMan Ribosomal RNA Control Reagents, Applied Biosystems, CA) were amplified in a single-step, multiplex RT-PCR protocol, as recommended by the manufacturer and as described (Stuyver, et al. “A ribonucleoside analogue that blocks the replication of bovine viral diarrhea and hepatitis C viruses in culture” Antimicrob. Agents Chemother., January 2003, 47 (1), 244-254).
# Replicon cells were incubated in the absence or presence of these anti-metabolites for 96 hours, after which intracellular rRNA and HCV RNA levels were quantified (Table 1).
# [2] = tested on: HCV-replicon RNA-containing Huh7 cells (HCV RNA); experiment: HCV replicon assay: HCV RNA quantified by Q-RT-PCR after 96 h of compound exposure; format: cell-based, hepatitis C virus (HCV); conditions: for log reduction at 100 µM: read-out: Corrected HCV RNA log10 reduction at 100 μM; for log reduction at 10 µM: read-out: Corrected HCV RNA log10 reduction at 10 μM; for EC90: read-out: Corrected HCV RNA EC90; for specific inhibition of the replicon: RNR inhibitors tested
# Procedure: (§1) Incubation times differed according to the type of experiment.
# [3] = tested on: HCV replicon RNA in Huh7 cells; experiment: Reversal studies with natural nucleosides: HCV RNA; format: cell-based, hepatitis C virus (HCV); conditions: for log10 reduction HCV: no nucleoside
# Procedure: as §1
# (§2) Cells were incubated with the test compound and, simultaneously, the natural ribo- or 2′-deoxy nucleosides (adenosine, guanosine (G), cytidine (C), uridine (U), 2′-deoxycytidine (dC), 2′-deoxyuridine, thymidine, 2′-deoxyguanosine (dG), and 2′-deoxyadenosine) (Table 2).
# [4] = tested on: HCV replicon-containing Huh7 cell line; experiment: Dynamics of replicon cell growth (cell count) over a 7-day period; conditions: seven-day assay, tested at approximately EC90 value
# [5] = tested on: rRNA in HCV replicon Huh7 cells; experiment: Reversal studies with natural nucleosides: rRNA; format: cell-based; conditions: for log10 reduction rRNA: no nucleoside
# Procedure: as §1, §2
# [6] = Hepatitis C virus, Huh-7, 96 h, read from HCV curves corrected for rRNA reduction
# [7] = 10 μM, 96 h, corrected by subtraction of rRNA
# [8] = 96 h, corrected by subtraction of rRNA
# [9] = 96 h, read from HCV curves corrected for rRNA reduction
Compound,Log10 RNA reduction (100 μM) rRNA [1],"log reduction at 100 µM ([2]; Hepatitis C virus, Huh-7, 96 h)","EC90 [2, 6]","Corrected HCV RNA log10 reduction at 10 μM [2, 7]","Corrected HCV RNA log10 reduction at 100 μM [2, 8]","EC90 ([2]; Hepatitis C virus, Huh-7, 96 h)",Log10 RNA reduction (100 μM) HCV ([2]; 96 h),further results
"NC(=O)NO [Hydroxy Urea, hydroxy urea]",0.25 ± 0.20 log10,-0.08 ± 0.16,> 100 µM,–,–,–,–,"log reduction at 10 µM ([2]; Hepatitis C virus, Huh-7, 10 μM, 96 h, corrected by subtraction of rRNA): 0.06 ± 0.04; specific inhibition of the replicon [2]: none"
"COc1c(C)c2c(c(O)c1C/C=C(\C)CCC(=O)O)C(=O)OC2 [MPA, mycophenolic acid]",1.09 ± 0.28 log10,0.07 ± 0.47,> 100 µM,0.22 ± 0.01 log10,–,–,–,–
"CN(Cc1cnc2nc(N)nc(N)c2n1)c1ccc(C(=O)N[C@@H](CCC(=O)O)C(=O)O)cc1 [Methotrexate, methotrexate]",0.07 ± 0.10 log10,–,> 100 µM,0.15 ± 0.01 log10,0.11 ± 0.09 log10,–,–,–
NC(=O)c1ncn([C@@H]2O[C@H](CO)[C@@H](O)[C@H]2O)c1O [Mizoribine],0.21 ± 0.50 log10,0.08 ± 0.82,> 100 µM,−0.14 ± 0.12 log10,–,–,–,–
"O=C(O)C[C@H](NC(=O)CP(=O)(O)O)C(=O)O [PALA, N-(phosphonoacetyl)-L-aspartate]",0.48 ± 0.02 log10,–,–,1.18 ± 0.11 log10,1.30 ± 0.05 log10,7.6 µM,–,log10 reduction HCV including natural nucleoside ([3]; 100 μM + U at 50 μM): 0.14 ± 0.03 log10; log10 reduction HCV ([3]; 100 μM): 1.77 ± 0.02 log10; effect on cell growth [4]: minimal effect; log10 reduction rRNA including natural nucleoside ([5]; 100 μM + U at 50 μM): −0.13 ± 0.10 log10; log10 reduction rRNA ([5]; 100 μM): 0.48 ± 0.02 log10
"Nc1ccn(C2OC(CO)C(O)C2=CF)c(=O)n1 (stereo not shown) [Tezacytabine, tezacytabine]",1.78 ± 0.69 log10,–,–,0.63 ± 0.07 log10,−0.19 ± 0.49 log10,–,1.59 ± 0.08 log10,"EC90 [2, 9]: > 100 µM; specific inhibition of the replicon [2]: none"
"NC(=O)c1csc([C@@H]2O[C@H](CO)[C@@H](O)[C@H]2O)n1 [Tiazofurin, tiazofurin]",0.99 ± 0.35 log10,–,–,–,−0.13 ± 0.37 log10,> 100 µM,0.86 ± 0.27 log10,"log reduction at 10 µM ([2]; Hepatitis C virus, Huh-7, 96 h): 0.04 ± 0.1"
"Nc1ccn([C@@H]2O[C@H](CO)[C@@H](O)C2(F)F)c(=O)n1 [dFdC, difluorodeoxycytidine]",–,–,–,1.32 ± 0.08 log10,–,0.17 µM,–,"Log10 RNA reduction rRNA ([1]; dFdC tested at 50 μM): 0.59 ± 0.05 log10; log10 reduction HCV including natural nucleoside ([3]; 1 μM + dC at 50 μM): 0.06 ± 0.00 log10; log10 reduction HCV ([3]; 1 μM): 1.89 ± 0.07 log10; Corrected HCV RNA log10 reduction ([2]; dFdC tested at 50 μM, 96 h, corrected for rRNA): 1.29 ± 0.11 log10; log10 reduction rRNA including natural nucleoside ([5]; 1 μM + dC at 50 μM): 0.07 ± 0.02 log10; log10 reduction rRNA ([5]; 1 μM): 0.52 ± 0.03 log10"
Cyclopentyl-cytosine [CP-C],0.91 ± 0.13 log10,–,–,0.64 ± 0.10 log10,1.06 ± 0.26 log10,–,1.97 ± 0.38 log10,"log10 reduction HCV including natural nucleoside ([3]; 20 μM + C at 50 μM): 0.11 ± 0.01 log10; log10 reduction HCV ([3]; 20 μM): 1.80 ± 0.07 log10; log10 reduction HCV including natural nucleoside ([3]; 100 μM + C at 50 μM): 0.32 ± 0.11 log10; log10 reduction HCV ([3]; 100 μM): 2.32 ± 0.08 log10; EC90 [2, 9]: 25 µM; log10 reduction rRNA including natural nucleoside ([5]; 20 μM + C at 50 μM): 0.02 ± 0.00 log10; log10 reduction rRNA ([5]; 20 μM): 0.87 ± 0.08 log10; log10 reduction rRNA including natural nucleoside ([5]; 100 μM + C at 50 μM): 0.17 ± 0.01 log10; log10 reduction rRNA ([5]; 100 μM): 1.21 ± 0.02 log10"
